Assay results published in the NIST ThermoML archive (doi:10.1016/j.fluid.2014.02.018).
Numbers after ± are expanded uncertainties.

Settings: 313.15 K; Liquid; Closed cell (Static) method

Row | SMILES | vapor or sublimation pressure [kPa]
1 | CC(C)CC(C)(C)C [2,2,4-trimethylpentane] | 12.95 ± 0.031
2 | CCC(C)O (stereo not drawn) [butan-2-ol] | 6.045 ± 0.02
3 | C=CCCCC [hex-1-ene] | 44.98 ± 0.2
